Data on four compounds can be found in patent US20090076130A1, “COMPOUNDS FOR THE INHIBITION OF HISTONE DEACETYLASE” (NATUREWISE BIOTECH & MEDICALS CORPORATION, priority 2007, published 2009).

The test system of one experiment is SMN2 protein. The settings on record: fibroblast cells derived from SMA patients, 64 hours of treatment; cited from earlier work.
Experiment [1] relates to human giloblastoma DBTRG-05MG cancer cells. As to the kind of experiment: Growth and morphology of human giloblastoma DBTRG-05MG cancer cells. The format is cell-based. The settings on record: NBM-HD-1 2.5, 5, 10 μg/mL or 4 mM sodium butyrate, 72 hours. How it is done:
The human giloblastoma DBTRG-05MG cancer cells were cultured in RPMI medium 1640 (Gibco) supplemented with penicillin G, streptomycin sulphate, 0.5 mM of L-glutamine and 10% fetal bovine serum (FBS; Gibco), 100 mh/L sodium pyruvate (Gibco), and 1% NEAA (Gibco) at 37° C., 5% CO2 and 95% relative humidity. For these experiments, the cells were seeded at a density of 3×10^5 per well of 6-well plates. After 24 hours, the cells were treated with different concentrations of NBM-HD-1 and 4 mM sodium butyrate. The cells were observed and counted after 72 hours. […] In 05MG cells (FIG. 7(A)), after incubation with 2.5 μg/mL (FIG. 7(A)-b), 5 μg/mL (FIG. 7(A)-c) and 10 μg/mL (FIG. 7(A)-d) of NBM-HD-1 for 72 hours, the density of the cells reduced dramatically in comparison with that of the control group (FIG. 7(A)-a). The 05MG cells in the experimental group also changed to become longer than those in the control group.

Experiment [2] has as its system human breast MCF-7 cancer cells. Kind of experiment: Growth and morphology of breast cancer MCF-7 cells. The experiment is classed as cell-based. The method, then: The breast cancer MCF-7 cells, were cultured in Dulbecco's modified Eagle's medium (DMEM; Gibco) supplemented with penicillin G, streptomycin sulphate, 0.5 mM of L-glutamine and 10% fetal bovine serum (FBS; Gibco) at 37° C., 5% CO2 and 95% relative humidity. The cells were seeded at a density of 3×10^5 per well of 6-well plates. After 24 hours, the cells were treated with different concentrations of compound NBM-HD-1 and 4 mM sodium butyrate being used as the positive control. The cells were observed after 48 hours and counted after 96 hours. […] In FIG. 8(A), after the cells were incubated with 2.5 μg/mL (FIG. 8(A)-b), 5 μg/mL (FIG. 8(A)-c) and 10 μg/mL (FIG. 8(A)-d) of NBM-HD-1 for 48 hours, the density of MCF-7 cells reduced dramatically in comparison with that of the control group (FIG. 8(A)-a). The morphology of the MCF-7 cells in the experimental group changed in comparison with that in the control group. […] The results of the cell counting (FIG. 8(B)) indicate that, similar to sodium butyrate, NBM-HD-1 inhibits cell growth.
MCF-7 cancer cells were seeded at a density of 3×10^5 per well in 6-well plates. After 24 hours, the cells were treated with different concentrations of compound NBM-HD-2 and 4 mM sodium butyrate being used as the positive control. The cells were observed and counted after 72 hours. […] In FIG. 13(A), after the cells were incubated with 2.5 μg/mL (FIG. 13(A)-c), 5 μg/mL (FIG. 13(A)-d), 7.5 μg/mL (FIG. 13(A)-e) and 10 μg/mL (FIG. 13(A)-f) of NBM-HD-2 for 72 hours, the density of MCF-7 cells reduced dramatically in comparison with that of the control group (FIG. 13(A)-a). The morphology of the MCF-7 cells in the experimental group changed in comparison with that in the control group.
MCF-7 cancer cells were seeded at a density of 3×10^5 per well of 6-well plates. After 24 hours, the cells were treated with different concentrations of compound NBM-HD-3 and 4 mM sodium butyrate, which was being used as the positive control. The cells were observed and counted after 72 hours. […] In FIG. 14(A), after the cells were incubated with 2.5 μg/mL (FIG. 14(A)-c), 5 μg/mL (FIG. 14(A)-d), 7.5 μg/mL (FIG. 14(A)-e) and 10 μg/mL (FIG. 14(A)-f) of NBM-HD-3 for 72 hours, the density of MCF-7 cells reduced dramatically in comparison with that of the control group (FIG. 14(A)-a). The morphology of the MCF-7 cells in the experimental group changed in comparison with that in the control group. […] The results of the cell counting (FIG. 14(B)) indicate that, similar to sodium butyrate, NBM-HD-3 inhibits cell growth.

The next experiment concerns acetylated histone H4. Kind of experiment: Western blotting of hyperacetylated histone H4 in C6 glioma cells. The format is cell-based, rat. How it is done:
Accumulation of hyperacetylated histone H4 was analyzed in the cell lysates by using Western Blotting and the antibody directed against acetylated histone H4 (Upstate). The C6 glioma cells were seeded at a density of 1×10^6 per 10 cm culture dish. After 24 hours, the cells were treated with 10 μg/mL of NBM-HD-1 or 4 mM sodium butyrate for several hours. The whole-cell lysates were prepared by using denaturing SDS sample buffer and then separated on 15% SDS-polyacrylamide gels. […] The amount of acetylated histones was hardly detectable in untreated C6 glioma cells. The amount of acetylated histone H4 of the cells treated with 4 mM sodium butyrate for 2 hours increased. Sodium butyrate was then removed from the culture medium. After 6 hours, the amount of acetylated histone H4 decreased. The accumulation of acetylated histone H4 increased in the cells treated with NBM-HD-1 for 2 hours. […] The highest histone acetylation appeared at 6 hours after the compound had been removed. […] Because NBM-HD-1 is more hydrophobic than sodium butyrate, NBM-HD-1 can be retained in the cells longer than sodium butyrate and continuously induce the acetylation of histone H4.
In general terms: In western blotting, separated proteins are transferred to a membrane and probed.

The test system of experiment [3] is transgenic mouse model of spinal and bulbar muscular atrophy. The settings on record: cited from earlier work.
A further experiment deals with cyclin D1. To be noted: MCF-7 breast cancer cells; cited from earlier work.
Where [4] appears, read: compound 2.5, 5, 7.5, 10 μg/mL or 4 mM sodium butyrate, 72 hours.

For `CN(C)c1ccc(C(=O)NCCCCCCC(=O)NO)cc1` [M344], the “up-regulation of SMN2 protein expression” value in the experiment on SMN2 protein is “up to 7 fold”.

As for `CCCC(=O)[O-].[Na+]` [sodium butyrate, reference compound], the “growth of 05MG cancer cells” value in experiment [1] is “could inhibit the proliferation of 05MG cancer cells”. Besides, the “growth of MCF-7 cancer cells” value in experiment [2] (NBM-HD-1 2.5, 5, 10 μg/mL or 4 mM sodium butyrate, observed after 48 hours, counted after 96 hours) is listed as “able to inhibit the growth of MCF-7 cells”; in experiment [2] (setting [4]), “able to inhibit the growth of MCF-7 cells”. In addition, in the experiment on acetylated histone H4 (10 μg/mL NBM-HD-1 or 4 mM sodium butyrate, 2 hours), the “accumulation of hyperacetylated histone H4” value is “can increase the accumulation of hyperacetylated histone H4”. Further, the “amount of acetylated histone H4 after removal of the compound” value with acetylated histone H4 (after 2 hours treatment and removal from the culture medium, up to 6 hours) is “decreased”. For the same compound, the phenotypic expression entry in experiment [3] is reported as “ameliorates phenotypic expression”.

Take `CC(/C=C/C(=O)NO)=C\[C@@H](C)C(=O)c1ccc(N(C)C)cc1` [Trichostatin A]: the “cyclin D1 degradation” value with cyclin D1 is “induce ubiquitin-dependent cyclin D1 degradation”.

Consider `COc1cc2c(c(O)c1CCC(C)(C)O)C(=O)C[C@@H](c1ccc(OC)c(OC)c1C/C=C(\C)CCCC(C)(C)O)O2` [NBM-HD-3], for which the “morphology of MCF-7 cancer cells” value in experiment [2] (2.5, 5, 7.5, 10 μg/mL, 72 hours) is “change their morphology”. Moreover, the “growth of MCF-7 cancer cells” value in experiment [2] (setting [4]) is given as “can inhibit the growth of MCF-7 cancer cells in a dose-dependent manner”.
